These results are taken from patent US12227488B2, “Small molecule degraders of Helios and methods of use” (DANA-FARBER CANCER INSTITUTE, INC., priority 2018, dated 2025).

The target of assay [1] is T1, CRBN and Helios (IKZF2) (Homo sapiens, UniProt Q96SW2+Q9UKS7).
T1 construct: His (N); Strep (N)
As to the kind of experiment: TR-FRET dimerization assay (CRBN-IKZF2 ternary complex formation). The format is binding. The note with it: n=1. The procedure:
A focused library of imide analogs was synthesized and assessed for their ability to induce dimerization between CRBN and Helios in a time-resolved fluorescence energy transfer (TR-FRET) assay (FIG. 1A).
Prior to TR-FRET measurements being conducted, the reactions were incubated for 15 min at rt. […] The TR-FRET signal of each data point was extracted by calculating the 520/490 nm ratios. Data from single measurements (n=1), each calculated as an average of at least three technical replicates per well per experiment are presented in Table 1.
BODIPY-labeled CRBN in complex with Damage Specific DNA Binding Protein 1 (DDB1) harboring an internal deletion of the flexible BPB propeller (DDB1AB-CRBN) and in vitro biotinylated IKZF2 were treated with increasing concentrations of the indicated compounds in the presence of tracer amounts of Terbium-Streptavidin (Tb-SA). Compound-induced recruitment of IKZF2 to CRBN was quantified following the 520/490 TR-FRET ratio using a PHERAstar® plate reader (BMG) utilizing two synchronized PMTs to reduce background.

The subject of assay [2] is IKZF2. The experiment in a line: Cellular degradation assay, eGFP-IKZF2Δ fusion with mCherry reporter in Flp-In 293 cells. The format is cell-based. The settings on record: 5 h incubation, n=1. The procedure: (§1) IKZF1Δ, IKZF2Δ, GSPT1 and SALL4 ZnF1-2 were subcloned into mammalian pcDNA5/FRT Vector (Ampicillin and Hygromycin B resistant) modified to contain MCS-eGFP-P2A-mCherry. […] Following 2-3 passage cycle, FACS (FACSAria™ II, BD) was used to enrich for cells expressing eGFP and mCherry. Cells stably expressing the IKZF1Δ, IKZF2Δ, GSPT1 or SALL4 Znf1-2 GFP fusions with mCherry reporter were seeded at 30-50% confluency in 384-well plates with 50 μL FluoroBrite™ DMEM media (Thermo Fisher Scientific, A18967) containing 10% FBS per well a day before compound treatment. Compound titrations were dispensed using a D300e Digital Dispenser (HP), normalized to 0.5% DMSO, and incubated with cells for 5 hours.
(§2) The resulting images were analyzed using CellProfiler™. A series of image analysis steps (‘image analysis pipeline’) was constructed. First, the red and green channels were aligned and cropped to target the middle of each well (to avoid analysis of heavily clumped cells at the edges), and a background illumination function was calculated for both red and green channels of each well individually and subtracted to correct for illumination variations across the 384-well plate from various sources of error. An additional step was then applied to the green channel to suppress the analysis of large auto fluorescent artifacts and enhance the analysis of cell specific fluorescence by way of selecting for objects under a given size, 30 A.U., and with a given shape, speckles. mCherry-positive cells were then identified in the red channel filtering for objects between 8-60 pixels in diameter and using intensity to distinguish between clumped objects. The green channel was then segmented into GFP positive and negative areas and objects were labeled as GFP positive if at least 40% of it overlapped with a GFP positive area. The fraction of GFP-positive cells/mCherry-positive cells in each well was then calculated, and the green and red images were rescaled for visualization.
(§3) The degradation assay was performed as described above. […] Degradation was measured after 5 h of compound treatment and the concentrations that lead to half degradation at 5 h (DC50,5 h) were calculated using the nonlinear fit variable slope model (GraphPad Software).

Assay [3] has as its target T2, IKZF1 (Homo sapiens, UniProt Q13422).
T2 construct: expressed in transfected cells; host or cells: Flp-In 293
As to the kind of experiment: Cellular degradation assay, eGFP-IKZF1Δ fusion with mCherry reporter in Flp-In 293 cells. Type of assay: cell-based. The note with it: 5 h incubation, n=1. The procedure:
as §1, §2, §3

The mark [4] stands for this setting: compound concentration 6.6667E−05.
Where [5] appears, read: compound concentration 6.6667E−06.
Setting [6] is: compound concentration 6.6667E−07 (667 nM).
The mark [7] stands for this setting: compound concentration 2.00E−05.
The mark [8] stands for this setting: compound concentration 2.00E−06.
Setting [9] is: compound concentration 2.00E−07.

Each structure is given as a SMILES string.

T1 sequence (Q96SW2 whole entry): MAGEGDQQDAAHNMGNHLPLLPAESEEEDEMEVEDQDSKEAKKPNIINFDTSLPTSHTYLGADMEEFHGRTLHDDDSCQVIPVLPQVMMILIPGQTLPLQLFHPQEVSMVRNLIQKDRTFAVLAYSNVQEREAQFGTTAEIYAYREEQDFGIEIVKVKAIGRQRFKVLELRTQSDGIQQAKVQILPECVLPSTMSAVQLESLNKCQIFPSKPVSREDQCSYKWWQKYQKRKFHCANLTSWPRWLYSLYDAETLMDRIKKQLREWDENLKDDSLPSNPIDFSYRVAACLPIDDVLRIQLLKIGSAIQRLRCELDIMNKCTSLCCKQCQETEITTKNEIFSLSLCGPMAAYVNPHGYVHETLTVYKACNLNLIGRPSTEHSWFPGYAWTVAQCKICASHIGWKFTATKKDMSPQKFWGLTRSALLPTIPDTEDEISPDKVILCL
T1 sequence (Q9UKS7 whole entry): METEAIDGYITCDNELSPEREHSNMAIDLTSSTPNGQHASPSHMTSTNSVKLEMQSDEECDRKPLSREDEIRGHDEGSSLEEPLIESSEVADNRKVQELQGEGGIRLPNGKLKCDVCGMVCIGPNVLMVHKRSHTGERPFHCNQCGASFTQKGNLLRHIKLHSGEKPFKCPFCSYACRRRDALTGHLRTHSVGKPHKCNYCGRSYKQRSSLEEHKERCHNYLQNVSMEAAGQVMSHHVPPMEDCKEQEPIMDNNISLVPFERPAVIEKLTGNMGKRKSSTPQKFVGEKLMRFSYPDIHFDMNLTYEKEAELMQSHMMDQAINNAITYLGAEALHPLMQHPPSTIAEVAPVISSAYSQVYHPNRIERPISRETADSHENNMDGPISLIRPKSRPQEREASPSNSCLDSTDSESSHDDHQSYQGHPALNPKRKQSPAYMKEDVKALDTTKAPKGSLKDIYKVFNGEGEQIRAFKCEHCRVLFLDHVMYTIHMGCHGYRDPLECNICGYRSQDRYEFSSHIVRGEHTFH
T2 sequence (Q13422 83-213 isoform Q13422-7 limits assumed): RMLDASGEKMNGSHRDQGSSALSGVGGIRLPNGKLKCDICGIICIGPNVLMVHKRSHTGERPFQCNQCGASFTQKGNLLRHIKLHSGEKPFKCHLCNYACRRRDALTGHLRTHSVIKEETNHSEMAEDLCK
T2 sequence (Q96SW2 whole entry partner): as the sequence (Q96SW2 whole entry) above
T2 sequence (Q16531 2-1140 partner limits assumed): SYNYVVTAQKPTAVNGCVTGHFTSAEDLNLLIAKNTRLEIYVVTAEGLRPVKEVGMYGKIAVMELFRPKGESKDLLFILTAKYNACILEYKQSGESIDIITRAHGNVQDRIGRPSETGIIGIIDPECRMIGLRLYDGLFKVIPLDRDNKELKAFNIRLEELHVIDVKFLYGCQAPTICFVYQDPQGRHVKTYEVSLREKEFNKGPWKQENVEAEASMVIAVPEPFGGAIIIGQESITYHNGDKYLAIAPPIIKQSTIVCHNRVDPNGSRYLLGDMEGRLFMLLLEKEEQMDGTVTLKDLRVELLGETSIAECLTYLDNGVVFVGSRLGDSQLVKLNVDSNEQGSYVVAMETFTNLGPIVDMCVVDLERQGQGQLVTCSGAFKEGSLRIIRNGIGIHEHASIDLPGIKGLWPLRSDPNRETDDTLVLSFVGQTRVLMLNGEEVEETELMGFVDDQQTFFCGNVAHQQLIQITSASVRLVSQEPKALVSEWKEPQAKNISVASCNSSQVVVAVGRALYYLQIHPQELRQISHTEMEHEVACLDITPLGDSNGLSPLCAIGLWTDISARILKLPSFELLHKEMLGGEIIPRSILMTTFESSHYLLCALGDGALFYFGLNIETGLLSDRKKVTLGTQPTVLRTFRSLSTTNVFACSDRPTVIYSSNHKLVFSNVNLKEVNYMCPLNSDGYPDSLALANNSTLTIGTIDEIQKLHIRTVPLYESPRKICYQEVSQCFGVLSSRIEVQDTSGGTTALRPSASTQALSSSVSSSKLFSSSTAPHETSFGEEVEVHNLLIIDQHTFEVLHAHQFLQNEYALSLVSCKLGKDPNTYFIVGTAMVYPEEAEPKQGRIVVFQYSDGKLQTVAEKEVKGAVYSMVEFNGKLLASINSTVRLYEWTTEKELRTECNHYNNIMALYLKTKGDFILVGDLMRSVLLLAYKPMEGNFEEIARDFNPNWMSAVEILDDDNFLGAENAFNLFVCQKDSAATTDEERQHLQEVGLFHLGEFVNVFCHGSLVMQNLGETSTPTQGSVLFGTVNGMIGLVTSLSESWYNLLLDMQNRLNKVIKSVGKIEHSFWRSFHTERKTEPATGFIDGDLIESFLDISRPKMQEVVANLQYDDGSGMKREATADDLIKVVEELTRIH

Take `Cc1ccc(NC(=O)N2Cc3ccc(NC4=CC(=O)N(C5CCC(=O)NC5=O)C4=O)cc3C2)cc1Cl` (stereo not drawn) [Compound 107, N-(3-chloro-4-methylphenyl)-5-((1-(2,6-dioxopiperidin-3-yl)-2,5-dioxo-2,5-dihydro-1H-pyrrol-3-yl)amino)isoindoline-2-carboxamide]: the “TR-FRET-IKZF2 (Normalized to CC-885)” value was found to be 0.086 in assay [1] (setting [4]), 0.066 in assay [1] (setting [5]) and 0.066 in assay [1] (setting [6]). Also, the “IKZF2 GFP/RFP Relative Abundance” value stood at 0.225 in assay [2] (setting [7]), 1.034 in assay [2] (setting [8]) and 1.048 in assay [2] (setting [9]). For the same compound, the “IKZF1 GFP/RFP Relative Abundance” value in assay [3] (setting [7]) is reported as 0.245; in assay [3] (setting [8]), 1.043; in assay [3] (setting [9]) it was 0.997.

Turning to `Cc1ccc(NC(=O)N2CCc3ccc(NC4=CC(=O)N(C5CCC(=O)NC5=O)C4=O)cc3C2)cc1Cl` (stereo not drawn) [Compound 109, N-(3-chloro-4-methylphenyl)-7-((1-(2,6-dioxopiperidin-3-yl)-2,5-dioxo-2,5-dihydro-1H-pyrrol-3-yl)amino)-3,4-dihydroisoquinoline-2(1H)-carboxamide], the “TR-FRET-IKZF2 (Normalized to CC-885)” value in assay [1] (setting [4]) is 0.463; in assay [1] (setting [5]) it was 0.640; in assay [1] (setting [6]) it was 0.506. Besides, the “IKZF2 GFP/RFP Relative Abundance” value is on record as 0.563 in assay [2] (setting [7]), 0.313 in assay [2] (setting [8]) and 0.539 in assay [2] (setting [9]). For the same compound, the “IKZF1 GFP/RFP Relative Abundance” value was 0.189 in assay [3] (setting [7]), 0.101 in assay [3] (setting [8]) and 0.142 in assay [3] (setting [9]).

As for `Cc1ccc(NC(=O)OCCc2cccc(NC3=CC(=O)N(C4CCC(=O)NC4=O)C3=O)c2)cc1Cl` (stereo not drawn) [Compound 110, 3-((1-(2,6-dioxopiperidin-3-yl)-2,5-dioxo-2,5-dihydro-1H-pyrrol-3-yl)amino)phenethyl (3-chloro-4-methylphenyl)carbamate], the “TR-FRET-IKZF2 (Normalized to CC-885)” value came to 1.017 in assay [1] (setting [4]), 1.086 in assay [1] (setting [5]) and 0.853 in assay [1] (setting [6]). Further, the “IKZF2 GFP/RFP Relative Abundance” value in assay [2] (setting [7]) stood at 0.048; in assay [2] (setting [8]), 0.048; in assay [2] (setting [9]) it was 0.038. Also, the “IKZF1 GFP/RFP Relative Abundance” value in assay [3] (setting [7]) is given as 0.096; in assay [3] (setting [8]), 0.066; in assay [3] (setting [9]) it was 0.086.

In the case of `Cc1ccc(NC(=O)NCc2cc(NC(=O)N(C)C)cc(NC3=CC(=O)N(C4CCC(=O)NC4=O)C3=O)c2)cc1Cl` (stereo not drawn) [Compound 112, 3-(3-((3-(3-chloro-4-methylphenyl)ureido)methyl)-5-((1-(2,6-dioxopiperidin-3-yl)-2,5-dioxo-2,5-dihydro-1H-pyrrol-3-yl)amino)phenyl)-1,1-dimethylurea], the “TR-FRET-IKZF2 (Normalized to CC-885)” value stood at 0.048 in assay [1] (setting [4]), 0.035 in assay [1] (setting [5]) and 0.035 in assay [1] (setting [6]). Also, the “IKZF2 GFP/RFP Relative Abundance” value in assay [2] (setting [7]) is 1.081; in assay [2] (setting [8]), 1.047; in assay [2] (setting [9]), 1.034. Also, the “IKZF1 GFP/RFP Relative Abundance” value in assay [3] (setting [7]) was found to be 0.726; in assay [3] (setting [8]), 0.949; in assay [3] (setting [9]), 1.002.

In the case of `O=C1CCC(N2C(=O)C=C(Nc3cccc(CNC(=O)Nc4ccccc4)c3)C2=O)C(=O)N1` (stereo not drawn) [Compound 119, 1-(3-((1-(2,6-dioxopiperidin-3-yl)-2,5-dioxo-2,5-dihydro-1H-pyrrol-3-yl)amino)benzyl)-3-phenylurea], the “TR-FRET-IKZF2 (Normalized to CC-885)” value is recorded as 0.817 in assay [1] (setting [4]), 0.671 in assay [1] (setting [5]) and 0.629 in assay [1] (setting [6]). Further, the “IKZF2 GFP/RFP Relative Abundance” value in assay [2] (setting [7]) was determined as 0.392; in assay [2] (setting [8]), 0.516; in assay [2] (setting [9]), 0.544. Besides, the “IKZF1 GFP/RFP Relative Abundance” value stood at 0.055 in assay [3] (setting [7]), 0.079 in assay [3] (setting [8]) and 0.101 in assay [3] (setting [9]).
